The text below walks through data of publication PMC5218480 (PLoS ONE, 2017).

In this assay the test system is MV-4-11 cells. Nature of the assay: Gene expression microarray analysis (Affymetrix PrimeView) and GSEA. The class given is cell-based, human. Set-up: RFU PODN (11730768_x_at) / Fold change /veh PODN (11730768_x_at) / RFU LINC00158 (11744669_a_at) / Fold change /veh LINC00158 (11744669_a_at) / RFU DUSP10 (11751237_a_at) / Fold change /veh DUSP10 (11751237_a_at) / RFU ID3 (11757404_x_at) / Fold change /veh ID3 (11757404_x_at) / RFU PLEKHG5 (11737974_s_at) / Fold change /veh PLEKHG5 (11737974_s_at) / RFU LRRC4B (11730491_at) / Fold change /veh LRRC4B (11730491_at) / RFU GIMAP4 (11747438_a_at) / Fold change /veh GIMAP4 (11747438_a_at) / RFU KRT8 (11758183_x_at) / Fold change /veh KRT8 (11758183_x_at) / RFU CNN1 (11734310_a_at) / Fold change /veh CNN1 (11734310_a_at) / RFU VPS37D (11726825_at) / Fold change /veh VPS37D (11726825_at) / RFU C10orf10 (11716522_x_at) / Fold change /veh C10orf10 (11716522_x_at) / RFU KIR2DL2 /// KIR2DL4 /// KIR2DL5A /// KIR2DL5B /// KIR2DS1 /// KIR2DS2 /// KIR2DS3 /// KIR2DS4 /// KIR3DL3 /// KIR3DL3 /// KIR3DS1 (11738374_at) / Fold change /veh KIR2DL2 /// KIR2DL4 /// KIR2DL5A /// KIR2DL5B /// KIR2DS1 /// KIR2DS2 /// KIR2DS3 /// KIR2DS4 /// KIR3DL3 /// KIR3DL3 /// KIR3DS1 (11738374_at) / RFU C1QL1 (11718748_at) / Fold change /veh C1QL1 (11718748_at) / RFU TMPRSS4 (11747572_a_at) / Fold change /veh TMPRSS4 (11747572_a_at) / RFU HAMP (11756126_x_at) / Fold change /veh HAMP (11756126_x_at) / RFU RNFT2 (11725882_a_at) / Fold change /veh RNFT2 (11725882_a_at) / RFU NR4A2 (11747474_a_at) / Fold change /veh NR4A2 (11747474_a_at) / RFU ABCC12 (11746883_a_at) / Fold change /veh ABCC12 (11746883_a_at) / RFU TMEM136 (11760407_x_at) / Fold change /veh TMEM136 (11760407_x_at) / RFU CLDN22 /// WWC2 (11732394_at) / Fold change /veh CLDN22 /// WWC2 (11732394_at) / RFU HLA-DPB1 (11760878_x_at) / Fold change /veh HLA-DPB1 (11760878_x_at) / RFU SPINT1 (11716480_a_at) / Fold change /veh SPINT1 (11716480_a_at) / RFU GAP43 (11754022_s_at) / Fold change /veh GAP43 (11754022_s_at) / RFU A4GNT (11735810_at) / Fold change /veh A4GNT (11735810_at) / RFU PRB3 (11715151_x_at) / Fold change /veh PRB3 (11715151_x_at) / RFU TUBB4B (11761932_at) / Fold change /veh TUBB4B (11761932_at) / RFU CAPN14 (11732068_a_at) / Fold change /veh CAPN14 (11732068_a_at) / RFU TMCC2 (11721928_a_at) / Fold change /veh TMCC2 (11721928_a_at) / RFU IRGQ (11745062_a_at) / Fold change /veh IRGQ (11745062_a_at) / RFU FAM174B (11720279_a_at) / Fold change /veh FAM174B (11720279_a_at) / RFU TMPRSS4 (11748680_a_at) / Fold change /veh TMPRSS4 (11748680_a_at) / RFU FAM212B (11763350_a_at) / Fold change /veh FAM212B (11763350_a_at) / RFU PLEKHG5 (11743358_a_at) / Fold change /veh PLEKHG5 (11743358_a_at) / RFU ZSCAN30 (11745921_a_at) / Fold change /veh ZSCAN30 (11745921_a_at) / RFU CMKLR1 (11741424_a_at) / Fold change /veh CMKLR1 (11741424_a_at) / RFU LOC101060620 /// MAPK8IP1 (11723275_at) / Fold change /veh LOC101060620 /// MAPK8IP1 (11723275_at) / RFU SPTSSB (11747773_x_at) / Fold change /veh SPTSSB (11747773_x_at) / RFU PRSS12 (11739890_at) / Fold change /veh PRSS12 (11739890_at) / RFU BIN1 (11741810_x_at) / Fold change /veh BIN1 (11741810_x_at) / RFU WNT11 (11732464_a_at) / Fold change /veh WNT11 (11732464_a_at) / RFU C10orf10 (11716521_a_at) / Fold change /veh C10orf10 (11716521_a_at) / RFU C5orf56 (11738089_at) / Fold change /veh C5orf56 (11738089_at) / RFU CYB561 (11721691_x_at) / Fold change /veh CYB561 (11721691_x_at) / RFU ANKRD19P (11752326_a_at) / Fold change /veh ANKRD19P (11752326_a_at) / RFU OR2T12 /// OR2T33 /// OR2T8 (11738714_s_at) / Fold change /veh OR2T12 /// OR2T33 /// OR2T8 (11738714_s_at) / RFU VCAN (11748164_a_at) / Fold change /veh VCAN (11748164_a_at) / RFU JSRP1 (11732532_at) / Fold change /veh JSRP1 (11732532_at) / RFU KRTAP10-11 (11738290_x_at) / Fold change /veh KRTAP10-11 (11738290_x_at) / RFU MYO3A (11730013_a_at) / Fold change /veh MYO3A (11730013_a_at) / RFU EBF3 (11725865_a_at) / Fold change /veh EBF3 (11725865_a_at) / RFU CAMK2N1 (11719241_x_at) / Fold change /veh CAMK2N1 (11719241_x_at) / RFU C5orf56 (11738088_a_at) / Fold change /veh C5orf56 (11738088_a_at) / RFU OLFML3 (11715873_a_at) / Fold change /veh OLFML3 (11715873_a_at) / RFU LOC100653217 /// NTM (11731650_a_at) / Fold change /veh LOC100653217 /// NTM (11731650_a_at) / RFU MAPK11 (11762145_a_at) / Fold change /veh MAPK11 (11762145_a_at) / RFU FIZ1 (11724087_x_at) / Fold change /veh FIZ1 (11724087_x_at) / RFU OASL (11726364_x_at) / Fold change /veh OASL (11726364_x_at) / RFU SOX15 (11748057_x_at) / Fold change /veh SOX15 (11748057_x_at) / RFU CD79A (11719716_a_at) / Fold change /veh CD79A (11719716_a_at) / RFU HIST1H1D (11736915_at) / Fold change /veh HIST1H1D (11736915_at) / RFU CASKIN2 (11723855_a_at) / Fold change /veh CASKIN2 (11723855_a_at) / RFU LOC730098 (11760151_x_at) / Fold change /veh LOC730098 (11760151_x_at) / RFU OR4N2 (11742367_at) / Fold change /veh OR4N2 (11742367_at) / RFU PRRT2 (11749266_a_at) / Fold change /veh PRRT2 (11749266_a_at) / RFU SNX32 (11753110_a_at) / Fold change /veh SNX32 (11753110_a_at) / RFU CDHR5 (11726645_a_at) / Fold change /veh CDHR5 (11726645_a_at) / RFU RCAN1 (11760418_a_at) / Fold change /veh RCAN1 (11760418_a_at) / RFU FAM167A (11723789_a_at) / Fold change /veh FAM167A (11723789_a_at) / RFU FAM26E (11764081_at) / Fold change /veh FAM26E (11764081_at) / RFU ISYNA1 (11749810_s_at) / Fold change /veh ISYNA1 (11749810_s_at) / RFU ACY1 (11761880_at) / Fold change /veh ACY1 (11761880_at) / RFU 11764098_at / Fold change /veh 11764098_at / RFU SAMD14 (11745864_x_at) / Fold change /veh SAMD14 (11745864_x_at) / RFU NPB (11741838_a_at) / Fold change /veh NPB (11741838_a_at) / RFU TMPRSS6 (11731388_a_at) / Fold change /veh TMPRSS6 (11731388_a_at) / RFU KRTAP10-2 (11738614_at) / Fold change /veh KRTAP10-2 (11738614_at) / RFU ARHGAP8 /// PRR5-ARHGAP8 (11727945_x_at) / Fold change /veh ARHGAP8 /// PRR5-ARHGAP8 (11727945_x_at) / RFU KRTAP5-7 /// NADSYN1 (11734609_at) / Fold change /veh KRTAP5-7 /// NADSYN1 (11734609_at) / RFU RASL12 (11751679_a_at) / Fold change /veh RASL12 (11751679_a_at) / RFU CDKN2B (11736163_a_at) / Fold change /veh CDKN2B (11736163_a_at) / RFU PRF1 (11729649_at) / Fold change /veh PRF1 (11729649_at) / RFU, ZNF638 /// ZNF638-IT1 / Fold change vs veh, ZNF638 /// ZNF638-IT1 / RFU, PANK3 / Fold change vs veh, PANK3 / RFU, SH3YL1 / Fold change vs veh, SH3YL1 / RFU, ZEB2 / Fold change vs veh, ZEB2 / RFU, NRIP1 / Fold change vs veh, NRIP1 / RFU, PTTG1IP / Fold change vs veh, PTTG1IP / RFU, CAPN2 / Fold change vs veh, CAPN2 / RFU, MED14 / Fold change vs veh, MED14 / RFU, SNORA58 / Fold change vs veh, SNORA58 / RFU, C1orf63 / Fold change vs veh, C1orf63 / RFU, LRRFIP1 / Fold change vs veh, LRRFIP1 / RFU, NDUFAF7 / Fold change vs veh, NDUFAF7 / RFU, SLC12A2 / Fold change vs veh, SLC12A2 / RFU, IBTK / Fold change vs veh, IBTK / RFU, ESF1 / Fold change vs veh, ESF1 / Fold change vs veh, TMEM50B / RFU, TAOK1 / Fold change vs veh, TAOK1 / RFU, ACBD3 / Fold change vs veh, ACBD3 / RFU, TMA16 / Fold change vs veh, TMA16 / RFU, RWDD3 / Fold change vs veh, RWDD3 / RFU, BCAT1 / Fold change vs veh, BCAT1 / RFU, EDEM3 / Fold change vs veh, EDEM3 / RFU, TMEM33 / Fold change vs veh, TMEM33 / RFU, WDR75 / Fold change vs veh, WDR75 / RFU, AHCTF1 / Fold change vs veh, AHCTF1 / RFU, TFRC / Fold change vs veh, TFRC / RFU, ZDHHC17 / Fold change vs veh, ZDHHC17 / RFU, NOM1 / Fold change vs veh, NOM1 / RFU, ARL8B / Fold change vs veh, ARL8B / RFU, ZBTB11 / Fold change vs veh, ZBTB11 / RFU, TAMM41 / Fold change vs veh, TAMM41 / RFU, KIAA1704 /// LOC100996395 / Fold change vs veh, KIAA1704 /// LOC100996395 / RFU, ING1 / Fold change vs veh, ING1 / RFU, TRMT61B / Fold change vs veh, TRMT61B / RFU, FUBP3 / Fold change vs veh, FUBP3 / RFU, TP53 / Fold change vs veh, TP53 / RFU, TNKS2 / Fold change vs veh, TNKS2 / RFU, ZFP14 / Fold change vs veh, ZFP14 / RFU, ACTR2 / Fold change vs veh, ACTR2 / RFU, PPP3R1 / Fold change vs veh, PPP3R1 / RFU, PIK3R1 / Fold change vs veh, PIK3R1 / RFU, HNRNPA1 / Fold change vs veh, HNRNPA1 / RFU, RNF170 / Fold change vs veh, RNF170 / RFU, ZNF28 / Fold change vs veh, ZNF28 / RFU, RNGTT / Fold change vs veh, RNGTT / RFU, OGT / Fold change vs veh, OGT / RFU, BRD1 / Fold change vs veh, BRD1 / RFU, MARS / Fold change vs veh, MARS / RFU, ZNF655 / Fold change vs veh, ZNF655 / RFU, FAHD1 / Fold change vs veh, FAHD1 / RFU, BDP1 / Fold change vs veh, BDP1 / RFU, LRRCC1 / Fold change vs veh, LRRCC1 / RFU, ARID1A / Fold change vs veh, ARID1A / RFU, ZNF146 / Fold change vs veh, ZNF146 / RFU, ZNF330 / Fold change vs veh, ZNF330 / RFU, GPN3 / Fold change vs veh, GPN3 / RFU, C9orf123 / Fold change vs veh, C9orf123 / RFU, N4BP2L2 / Fold change vs veh, N4BP2L2 / RFU, ARFIP1 / Fold change vs veh, ARFIP1 / RFU, FAM179B / Fold change vs veh, FAM179B / RFU, BCL10 / Fold change vs veh, BCL10 / RFU, UHRF1BP1L / Fold change vs veh, UHRF1BP1L / RFU, BET1 / Fold change vs veh, BET1 / RFU, CNOT2 / Fold change vs veh, CNOT2 / RFU, ZNF268 / Fold change vs veh, ZNF268 / Fold change vs veh, ZNF507 / RFU, DGCR2 / Fold change vs veh, DGCR2 / RFU, WDSUB1 / Fold change vs veh, WDSUB1 / Fold change vs veh, HSP90B1 /// MIR3652 / RFU, ADSS / Fold change vs veh, ADSS / RFU, GK / Fold change vs veh, GK / RFU, ZNF148 / Fold change vs veh, ZNF148 / RFU, TAF9 / Fold change vs veh, TAF9 / RFU, SLC1A5 / Fold change vs veh, SLC1A5 / RFU, SLMO2 / Fold change vs veh, SLMO2 / RFU, ABCC4 / Fold change vs veh, ABCC4 / RFU, LOC101060439 /// RAP1B / Fold change vs veh, LOC101060439 /// RAP1B / RFU, RFX7 / Fold change vs veh, RFX7 / RFU, GTPBP10 / Fold change vs veh, GTPBP10 / RFU, CNEP1R1 / Fold change vs veh, CNEP1R1 / RFU, BIVM-ERCC5 /// ERCC5 / Fold change vs veh, BIVM-ERCC5 /// ERCC5 / RFU, ILF3 / Fold change vs veh, ILF3 / RFU 11762660_at / Fold change /veh 11762660_at / RFU VCAN (11757783_s_at) / Fold change /veh VCAN (11757783_s_at) / RFU DDX43 (11728927_at) / Fold change /veh DDX43 (11728927_at) / RFU KRT8 (11758188_x_at) / Fold change /veh KRT8 (11758188_x_at) / RFU NKD1 (11759106_at) / Fold change /veh NKD1 (11759106_at) / RFU SRD5A1 (11742802_a_at) / Fold change /veh SRD5A1 (11742802_a_at) / RFU TPSAB1 /// TPSB2 (11721975_s_at) / Fold change /veh TPSAB1 /// TPSB2 (11721975_s_at) / RFU GSTM3 (11746129_a_at) / Fold change /veh GSTM3 (11746129_a_at) / RFU IL23R (11737362_x_at) / Fold change /veh IL23R (11737362_x_at) / RFU TMEM51 (11727254_a_at) / Fold change /veh TMEM51 (11727254_a_at) / RFU PIWIL2 (11732686_x_at) / Fold change /veh PIWIL2 (11732686_x_at) / RFU ORM1 (11744905_x_at) / Fold change /veh ORM1 (11744905_x_at) / RFU CCDC152 (11743942_at) / Fold change /veh CCDC152 (11743942_at) / RFU ECM1 (11717891_a_at) / Fold change /veh ECM1 (11717891_a_at) / RFU IL23R (11748794_a_at) / Fold change /veh IL23R (11748794_a_at) / RFU TNFAIP8L3 (11732012_x_at) / Fold change /veh TNFAIP8L3 (11732012_x_at) / RFU MBOAT4 (11741988_at) / Fold change /veh MBOAT4 (11741988_at) / RFU 11764193_at / Fold change /veh 11764193_at / RFU TMEM53 (11763286_at) / Fold change /veh TMEM53 (11763286_at) / RFU MAGEB2 (11727129_at) / Fold change /veh MAGEB2 (11727129_at) / RFU TMEM200A (11744735_a_at) / Fold change /veh TMEM200A (11744735_a_at) / RFU CCDC152 (11751479_a_at) / Fold change /veh CCDC152 (11751479_a_at) / RFU FAM211A (11726209_a_at) / Fold change /veh FAM211A (11726209_a_at) / RFU RGS16 (11746705_a_at) / Fold change /veh RGS16 (11746705_a_at) / RFU VCAN (11755009_s_at) / Fold change /veh VCAN (11755009_s_at) / RFU RHOB (11743442_s_at) / Fold change /veh RHOB (11743442_s_at) / RFU RGS16 (11720943_a_at) / Fold change /veh RGS16 (11720943_a_at) / RFU RGS16 (11720944_at) / Fold change /veh RGS16 (11720944_at) / RFU, VPS4B / Fold change vs veh, VPS4B / RFU, CREB1 / Fold change vs veh, CREB1 / RFU, DNAJC13 / Fold change vs veh, DNAJC13 / RFU, GNAQ / Fold change vs veh, GNAQ / RFU, CDK5R1 / Fold change vs veh, CDK5R1 / RFU, ZRANB3 / Fold change vs veh, ZRANB3 / RFU, CUL4A / Fold change vs veh, CUL4A / RFU, CCNY / Fold change vs veh, CCNY / RFU, UFL1 / Fold change vs veh, UFL1 / RFU, COG3 / Fold change vs veh, COG3 / RFU, DIAPH2 / Fold change vs veh, DIAPH2 / RFU, SKA2 / Fold change vs veh, SKA2 / RFU, AFF3 / Fold change vs veh, AFF3 / RFU, LMF1 / Fold change vs veh, LMF1 / RFU, IPO11 / Fold change vs veh, IPO11 / RFU, DFFB / Fold change vs veh, DFFB / RFU, FOXP1 / Fold change vs veh, FOXP1 / RFU, CARD8 / Fold change vs veh, CARD8 / RFU, STRN3 / Fold change vs veh, STRN3 / RFU, ADK / Fold change vs veh, ADK / RFU, RASSF2 / Fold change vs veh, RASSF2 / RFU, WIPF1 / Fold change vs veh, WIPF1 / RFU, LARP1B / Fold change vs veh, LARP1B / RFU, RASA1 / Fold change vs veh, RASA1 / RFU, RB1 / Fold change vs veh, RB1 / RFU, PPFIA1 / Fold change vs veh, PPFIA1 / RFU, MAT2A / Fold change vs veh, MAT2A / RFU, CCT5 / Fold change vs veh, CCT5 / RFU, WDR92 / Fold change vs veh, WDR92 / RFU, CUX1 / Fold change vs veh, CUX1 / RFU, TTC7A / Fold change vs veh, TTC7A / RFU, TMEM135 / Fold change vs veh, TMEM135 / RFU, DEPTOR / Fold change vs veh, DEPTOR / RFU, CPM / Fold change vs veh, CPM / RFU, DNAJB6 / Fold change vs veh, DNAJB6 / RFU, CACNA2D3 / Fold change vs veh, CACNA2D3 / RFU, DTX4 / Fold change vs veh, DTX4 / RFU, TFCP2 / Fold change vs veh, TFCP2 / RFU, GMCL1 /// GMCL1P1 / Fold change vs veh, GMCL1 /// GMCL1P1 / RFU, AEBP2 / Fold change vs veh, AEBP2 / RFU, SNHG1 /// SNORD22 /// SNORD25 /// SNORD26 /// SNORD27 /// SNORD28 /// SNORD29 /// SNORD31 / Fold change vs veh, SNHG1 /// SNORD22 /// SNORD25 /// SNORD26 /// SNORD27 /// SNORD28 /// SNORD29 /// SNORD31 / Fold change (Aza/veh), C12orf56 (ProbeSet 11735607_a_at) / Fold change (ACY-1035/veh), C12orf56 (ProbeSet 11735607_a_at) / Fold change (Aza/veh), FGFR1OP (ProbeSet 11751329_s_at) / Fold change (ACY-1035/veh), FGFR1OP (ProbeSet 11751329_s_at) / Fold change (Aza/veh), VPS36 (ProbeSet 11739960_a_at) / Fold change (ACY-1035/veh), VPS36 (ProbeSet 11739960_a_at) / RFU SYPL1 (11715823_x_at) / Fold change /veh SYPL1 (11715823_x_at) / RFU IGFBP7 (11715501_s_at) / Fold change /veh IGFBP7 (11715501_s_at) / RFU REEP3 (11722064_at) / Fold change /veh REEP3 (11722064_at) / RFU IGLL1 (11728026_x_at) / Fold change /veh IGLL1 (11728026_x_at): dose or concentration left out as unconfirmed. Conditions: MV-4-11 cells, 48 hours.

As for `Nc1ccc(-c2cccs2)cc1NC(=O)c1ccc2c(c1)cc(C1CC1)n2CCN1CCOCC1` [ACY-1035], the “RFU LRRC4B (11730491_at)” value is 28.30 RFU.
